Source: patent US11712443B2, “17α-monoesters and 17α,21-diesters of cortexolone for use in the treatment of tumors” (COSMO TECHNOLOGIES LTD., priority 2014, dated 2023)

System: MiaPaca-2 pancreatic tumor xenograft
Experiment: Human pancreatic tumor xenograft in nude mice, subcutaneous treatment
Assay type: in vivo
Description: The test was carried out comparing the anti-tumor activity of cortexolone 17α-benzoate at two different dosages (8.0 mg/kg, corresponding approximately at 230 μM, and 40 mg/kg, corresponding approximately at 1150 μM), versus the vehicle (i.e. 0.4% (v/v) tween 80 and 0.5% (w/v) carboxymethylcellulose in normal saline) and versus the comparator Cyproterone Acetate at two different dosages (7.4 mg/kg and 37 mg/kg).
1×10^6 MiaPaca-2 cells suspended in matrigel were subcutaneously injected into 6 week old athymic nude mice.
The treatment with the tested compounds, with the vehicle and with the comparative compound, was initiated after the tumor volume has reached 50 mm3 after transplantation. All compounds were injected 100 μL/mouse subcutaneously of low dose solution (approximately 230 μM) or 100 μL/mouse of high dose solution (approximately 1150 μM) of cortexolone 17α-benzoate, vehicle and cyproterone acetate, respectively. Compounds and controls were administered subcutaneously daily for 28 days.
Tumors were measured every 4 days with a digital caliper.
The results are plotted in FIG. 1 as average change in tumor volume relative to the start of treatment. Tumor volume was calculated according to the formula 0.5236(r1)^2(r2) where r1<r2.
The test was carried out comparing the anti-tumor activity of cortexolone 17α-valerate-21-propionate (CB-03-10) at two different dosages (approximately 8.6 mg/kg and 43 mg/kg) versus the vehicle (i.e. 0.4% (v/v) tween 80 and 0.5% (w/v) carboxymethylcellulose in normal saline) and versus the comparator Cyproterone Acetate at two different dosages (7.4 mg/kg and 37 mg/kg).
The treatment with the tested compound, with the vehicle and with the comparative compound was initiated after the tumor has reached a volume of 50 mm3 after implantation, injecting subcutaneously 100 μL/mouse of low dose solution (approximately 230 μM) or 100 μL/mouse of high dose solution (approximately 1150 μM) of cortexolone 17α-valerate-21-propionate (CB-03-10), vehicle and cyproterone acetate, respectively. Compounds and controls were administered subcutaneously daily for 28 days.
The results are plotted in FIG. 2 as average change in tumor volume relative to the start of treatment. Tumor volume was calculated according to the formula 0.5236(r1)^2(r2) where r1<r2.
CPA a well-known anti-androgen was used as control. Briefly 1×10^6 MiaPaca2 cells suspended in matrigel were subcutaneously (SC) injected into 6 week old male athymic nude mice. Tumors were measured every 4 days with a digital caliper. Tumor volume was calculated according to the formula: 0.5236(r1)2(r2) where r1<r2. Treatment with CB-03-10 and controls compounds was initiated after the tumor had reached 50 mm3. Compounds diluted in DMSO/2-hydroxypropyl b-cyclodextrin (vehicle) were injected subcutaneously (SC) daily (100 μL/mouse) at the concentration of 40 mg/Kg daily for 28 consecutive days.

**Q.** With `CCCCC(=O)O[C@]1(C(=O)COC(=O)CC)CC[C@H]2[C@@H]3CCC4=CC(=O)CC[C@]4(C)[C@H]3CC[C@@]21C` [CB-03-10, cortexolone 17α-valerate-21-propionate] as the molecule, how does the “pancreatic tumor size increase relative to initial tumor size” value (Example 6, high dose approximately 43 mg/kg (1150 μM, 100 μL/mouse) SC daily 28 days, for the time of treatment) read?
**A.** less than 5 fold

**Q.** What about the “pancreatic tumor size increase relative to the initial size” value (Example 22, 40 mg/Kg SC daily 28 days, during the treatment period) of the same molecule?
**A.** less than 5 fold

**Q.** And the Median survival (Example 22, 40 mg/Kg SC daily 28 days, vehicle 60 days)?
**A.** 70 days

**Q.** And the tumor size increase (Example 22, 14 days after treatment was stopped, vehicle 14-fold)?
**A.** 6 fold

**Q.** And the “in vivo antitumor activity compared with Cyproterone Acetate” value (Examples 5 and 6, FIG. 3, same animal model)?
**A.** antitumor activity higher than Cyproterone Acetate
